Test results as given in patent publication US9273077B2, “Phosphorus derivatives as kinase inhibitors” (ARIAD Pharmaceuticals, Inc., priority 2008, dated 2016).

Each compound was assayed against T1, ALK (Homo sapiens, UniProt Q9UM73) (assay: inhibitory potency against ALK (kinase inhibition assay)).
T1 construct: Kinases are expressed as either kinase domains or full length constructs fused to glutathione S-transferase (GST) or polyHistidine tagged fusion proteins; made in house; host or cells: E. coli or Baculovirus-High Five (not specified which for ALK)
T1 sequence (Q9UM73 19-1620): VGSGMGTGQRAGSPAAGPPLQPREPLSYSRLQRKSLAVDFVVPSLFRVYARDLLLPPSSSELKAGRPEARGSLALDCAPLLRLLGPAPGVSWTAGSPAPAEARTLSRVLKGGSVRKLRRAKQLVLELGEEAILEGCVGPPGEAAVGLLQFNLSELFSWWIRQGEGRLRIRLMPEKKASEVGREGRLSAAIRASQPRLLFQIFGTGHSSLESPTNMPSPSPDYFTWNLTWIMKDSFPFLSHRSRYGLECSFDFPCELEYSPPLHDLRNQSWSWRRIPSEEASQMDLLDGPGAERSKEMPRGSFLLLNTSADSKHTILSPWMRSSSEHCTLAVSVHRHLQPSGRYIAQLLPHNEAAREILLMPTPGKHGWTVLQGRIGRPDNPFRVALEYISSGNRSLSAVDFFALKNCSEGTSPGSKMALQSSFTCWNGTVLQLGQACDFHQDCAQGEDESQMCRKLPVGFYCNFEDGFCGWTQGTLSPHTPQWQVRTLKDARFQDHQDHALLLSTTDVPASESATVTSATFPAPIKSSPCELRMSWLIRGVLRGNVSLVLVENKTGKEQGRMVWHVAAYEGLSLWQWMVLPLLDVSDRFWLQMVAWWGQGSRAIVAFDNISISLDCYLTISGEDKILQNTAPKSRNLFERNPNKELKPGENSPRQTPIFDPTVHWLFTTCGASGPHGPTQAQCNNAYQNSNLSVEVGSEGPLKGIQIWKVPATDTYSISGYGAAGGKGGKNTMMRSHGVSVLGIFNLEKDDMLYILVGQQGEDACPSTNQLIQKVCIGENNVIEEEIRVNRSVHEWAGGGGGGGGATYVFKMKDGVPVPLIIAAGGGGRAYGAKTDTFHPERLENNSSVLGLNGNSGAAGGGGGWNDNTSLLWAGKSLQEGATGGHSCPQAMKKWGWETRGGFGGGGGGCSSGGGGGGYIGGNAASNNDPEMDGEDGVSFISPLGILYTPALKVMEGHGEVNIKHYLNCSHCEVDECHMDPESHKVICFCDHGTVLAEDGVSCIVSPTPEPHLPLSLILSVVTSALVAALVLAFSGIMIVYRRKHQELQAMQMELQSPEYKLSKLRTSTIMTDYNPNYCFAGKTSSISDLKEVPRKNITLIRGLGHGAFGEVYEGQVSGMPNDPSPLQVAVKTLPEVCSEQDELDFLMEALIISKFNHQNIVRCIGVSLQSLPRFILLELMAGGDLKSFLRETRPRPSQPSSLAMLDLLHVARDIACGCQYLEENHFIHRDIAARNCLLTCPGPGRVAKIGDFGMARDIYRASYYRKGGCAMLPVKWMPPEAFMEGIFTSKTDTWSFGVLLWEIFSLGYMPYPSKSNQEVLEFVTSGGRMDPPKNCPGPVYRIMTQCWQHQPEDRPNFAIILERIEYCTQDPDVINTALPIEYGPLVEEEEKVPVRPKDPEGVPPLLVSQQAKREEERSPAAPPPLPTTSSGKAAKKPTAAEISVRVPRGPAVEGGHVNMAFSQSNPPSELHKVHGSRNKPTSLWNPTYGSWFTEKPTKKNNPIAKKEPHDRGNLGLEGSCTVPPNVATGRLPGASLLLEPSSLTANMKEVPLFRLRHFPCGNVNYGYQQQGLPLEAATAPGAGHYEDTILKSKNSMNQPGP
Assay type: biochemical
Description: More specifically, the compounds described herein are screened for kinase inhibition activity as follows. Kinases suitable for use in the following protocol include, but are not limited to: ALK, Jak2, b-Raf, c-Met, Tie-2, FLT3, Abl, Lck, Lyn, Src, Fyn, Syk, Zap-70, Itk, Tec, Btk, EGFR, ErbB2, Kdr, FLT1, Tek, InsR, and AKT.
Kinases are expressed as either kinase domains or full length constructs fused to glutathione S-transferase (GST) or polyHistidine tagged fusion proteins in either E. coli or Baculovirus-High Five expression systems. They are purified to near homogeneity by affinity chromatography as previously described (Lehr et al., 1996; Gish et al., 1995). In some instances, kinases are co-expressed or mixed with purified or partially purified regulatory polypeptides prior to measurement of activity.
Kinase activity and inhibition can be measured by established protocols (see e.g., Braunwalder et al., 1996). In such cases, the transfer of ^33PO4 from ATP to the synthetic substrates poly(Glu, Tyr) 4:1 or poly(Arg, Ser) 3:1 attached to the bioactive surface of microtiter plates is taken as a measure of enzyme activity. After an incubation period, the amount of phosphate transferred is measured by first washing the plate with 0.5% phosphoric acid, adding liquid scintillant, and then counting in a liquid scintillation detector. The IC50 is determined by the concentration of compound that causes a 50% reduction in the amount of ^33P incorporated onto the substrate bound to the plate.
For example, in one method, compounds can be tested for their ability to inhibit kinase activity of baculovirus-expressed ALK using a modification of the ELISA protocol reported for trkA in Angeles, T. S. et al., Anal. Biochem. 1996, 236, 49-55, which is incorporated herein by reference. Phosphorylation of the substrate, phopholipase C-gamma (PLC- ? ) generated as a fusion protein with glutathione-S-transferase (GST) as reported in rotin, D. et al., EMBO J. 1992, 11, 559-567, which is incorporated by reference, can be detected with europium-labeled anti-phosphotyrosine antibody and measured by time-resolved fluorescence (TRF). […] Detection of the phosphorylated product can be performed by adding 100 ? L/well of Eu-N1 labeled PT66 antibody (Perkim Elmer #AD0041). Incubation at 37 degrees C. then proceeds for one hour, followed by addition of 100 ? L enhancement solution (for example Wallac #1244-105). The plate is gently agitated and after thirty minutes, the fluorescence of the resulting solution can be measured (for example using EnVision 2100 (or 2102) multilabel plate reader from Perkin Elmer).
Data analysis can then be performed. IC50 values can be calculated by plotting percent inhibition versus log10 of concentration of compound.
The inhibition of ALK tyrosine kinase activity can also be measured using the recombinant kinase domain of the ALK in analogy to VEDG-R kinase assay described in J. Wood et al., Cancer Res 2000, 60, 2178-2189. In vitro enzyme assays using GST-ALK protein tyrosine kinase can be performed in 96-well plate as a filter binding assay in 20 mMTris.HCl, pH 7.5, 3 mM MgCl2, 10 mM MnCl2, […], 0.1 ? Ci/assay (=30 ? L) [ ? -^33P]-ATP, 2 ? M ATP, 3 ? g/mL poly (Glu, tyr 4:1) Poly-EY (sigma P-0275), 1% DMSO, 25 ng ALK enzyme. Assays can be incubated for 10 min, at ambient temperature. Reactions can be terminated by adding 50 ? L of 125 mM EDTA, and the reaction mixture can be transferred onto a MAIP Multiscreen plate (Millipore, Bedford, Mass.) previously wet with methanol, and rehydrated for 5 minutes with water. Following washing (0.5% H3PO4), plates can be counted in a liquid scintillation counter. IC50 values are calculated by linear regression analysis of the percentage inhibition.

Row | IC50 [nM] | SMILES
1 | > 10 | CP(C)(=O)c1ccc(Nc2ncc(C(F)(F)F)c(NCCc3c[nH]c4ccccc34)n2)cc1 [Example 10, N^2-[4-(dimethylphosphoryl)phenyl]-N^4-[2-(1H-indol-3-yl)ethyl]-5-(trifluoromethyl)pyrimidine-2,4-diamine]
2 | > 10 | CP(C)(=O)c1ccc(Nc2ncc(C(F)(F)F)c(NCC34CC5CC(CC(C5)C3)C4)n2)cc1 [Example 12, N^2-[4-(dimethylphosphoryl)phenyl]-N′-(tricyclo[3.3.1.1^3,7]dec-1-ylmethyl)-5-(trifluoromethyl)pyrimidine-2,4-diamine]
3 | < 2 | CC(C)S(=O)(=O)c1ccccc1Nc1nc(Nc2ccc(P(C)(C)=O)cc2OC(F)(F)F)ncc1Cl [Example 25, 5-Chloro-N^2-[4-(dimethylphosphoryl)-2-(trifluoromethoxy)phenyl]-N^4-[2-(propan-2-ylsulfonyl)phenyl]pyrimidine-2,4-diamine]
4 | < 2 | CC(C)S(=O)(=O)c1ccccc1Nc1nc(Nc2ccc(P(C)(C)=O)cc2Cl)ncc1Cl [Example 26, 5-Chloro-N^2-[2-chloro-4-(dimethylphosphoryl)phenyl]-N^4-[2-(propan-2-ylsulfonyl)phenyl]pyrimidine-2,4-diamine]
